Like-named read-outs stand apart in the source and are kept apart here. Non-standard residues stand in square brackets, D forms with d. Residues, ends and D or L forms follow the SMILES beside them. *: point of attachment. DOTA = O=C(O)CN1CCN(CC(=O)O)CCN(CC(=O)*)CCN(CC(=O)O)CC1; 1Nal = N[C@@H](Cc1cccc2ccccc12)C(=O)O; NMeNle = CCCC[C@H](NC)C(=O)O

Series [1] is described as follows: log D, octanol/PBS distribution. The class given is physicochemical. Particulars: 111In-labeled peptide.
Series [2] can be described thus: protein binding in human serum (Sephadex G-50 size-exclusion chromatography). The class given is in vitro ADME. On the procedure:
The protein binding in human serum (500 pmol/mL, n = 2) was assessed by Sephadex G-50 size-exclusion chromatography (GE Healthcare Illustra, Little Chalfont, U.K.) for up to 24 h.
For orientation: Size exclusion chromatography separates by hydrodynamic size, large species first.

The nature of series [3]: in vivo stability studies in BALB/c mice. Particulars: i.v. How it is done: Metabolic studies evaluating the stability of the radioligands were carried out in 7- to 8-week-old female BALB/c mice. With the ^111In-labeled peptide derivatives, the studies were performed for the time point of 10 min p.i. (n = 2). With the ^177Lu-labeled peptide derivatives, additional studies were also carried out for the time point of 30 min and 60 min p.i. (n = 1 for each time point). To allow monitoring of the metabolites by analytical HPLC, the mice were injected with a higher amount of radioactivity (6–9 MBq indium-111, 30–45 MBq lutetium-177) corresponding to ∼1 nmol total peptide intravenously through a lateral tail vein. At different time points, the mice were euthanized by cervical dislocation and urine and a blood sample was collected. Liver and kidneys were excised and homogenized in 20 mM HEPES buffer pH 7.3. The amount of intact radiopeptide and the formation of metabolites was analyzed by analytical HPLC. Prior to injection into the HPLC system, all samples were treated as described for human serum and rat organ homogenate samples.

Series [4] deals with A431-CCK2R/A431-mock xenografts. Kind of series: biodistribution in A431-CCK2R/A431-mock xenografted BALB/c nude mice. The class given is in vivo. How it is done:
(§1) Biodistribution studies evaluating the tumor uptake of the radiolabeled peptides were performed in 7- to 9-week-old female athymic BALB/c nude mice (Charles River, Sulzfeld, Germany). For the induction of tumor xenografts, 150 μL of DMEM containing 2 × 10^6 A431-CCK2R and A431-mock cells were injected subcutaneously in the right and left flank of each mouse, respectively. And 10–14 days after injection, tumors reached a medium weight of ∼0.25 g. The mice were divided into groups of four and injected intravenously via a lateral tail vein with 0.2 MBq of ^111In-labeled compound (0.02 nmol) and 0.7 and 1.5 MBq of the ^177Lu-labeled compound (0.02 and 0.15 nmol). At 4 and 12 h p.i., the mice were sacrificed and the tumors and other tissues (blood, lung, heart, muscle, spleen, intestine, liver, kidneys, stomach, and pancreas) were removed, weighed, and their radioactivity measured in the γ counter together with the rest of the body. Initial biodistribution studies were performed with the three ^177Lu-labeled CCK2R-targeting ligands at an injected peptide amount of 20 pmol for the time point of 4 h p.i. From these studies, two peptide analogues were selected to further characterize the biodistribution profile also at a later time point of 12 h p.i. and at a higher injected peptide amount of 150 pmol. Additional animal studies were performed for the ^111In-labeled conjugates. Percentage of injected activity per gram tissue (%IA/g), tumor-to-organ activity ratios, as well as whole body activity were calculated for each sample and statistical analysis using independent two-population t-test (significance level p < 0.05) was performed using Origin software. For the comparison of more than two groups, data were analyzed using one-way analysis of variance (ANOVA) Holm–Bonferroni-adjusted post hoc analysis (significance level p < 0.05) using Microsoft Excel 2010 software (Microsoft Excel 2010, Microsoft Corporation, WA).

Experiment in series [5]: as above
The following applies: female, athymic BALB/c nude, mouse, iv, 20 pmol, total radioactivity, 20 pmol, 4 h p.i. It counts as in vivo. On the procedure: as §1

The mark [6] stands for this setting: 4 h after incubation, read-out: protein binding (%) 4 h (converted).
Setting [7] is: 24 h after incubation, read-out: protein binding (%) 24 h (converted).

A word on the logD: it is the decadic logarithm of the distribution of all forms, ionised or not, between an organic phase and buffer at a given pH. A lower logD goes with lower lipophilicity. In series [1], `CCCC[C@@H](C(=O)N[C@@H](CC(=O)O)C(=O)N[C@@H](Cc1cccc2ccccc12)C(N)=O)N(C)C(=O)[C@H](Cc1c[nH]c2ccccc12)NC(=O)CNC(=O)[C@H](Cc1ccc(O)cc1)NC(=O)[C@@H]1CCCN1C(=O)[C@@H](CCC(=O)O)NC(=O)CN1CCN(CC(=O)O)CCN(CC(=O)O)CCN(CC(=O)O)CC1` [[^111In]In-1, metal not drawn] ({DOTA}-[dE]PYGW[NMeNle]D[1Nal]-NH2) yielded a logD of -2.03. The fraction unbound in series [2] (setting [6]) is 0.555; in series [2] (setting [7]) it was 0.472.
The corresponding values for `CCCC[C@@H](C(=O)N[C@@H](CC(=O)O)C(=O)N[C@@H](Cc1cccc2ccccc12)C(N)=O)N(C)C(=O)[C@H](Cc1c[nH]c2ccccc12)NC(=O)CNC(=O)[C@@H]1CCCN1C(=O)[C@H](Cc1ccc(O)cc1)NC(=O)[C@@H](CCC(=O)O)NC(=O)CN1CCN(CC(=O)O)CCN(CC(=O)O)CCN(CC(=O)O)CC1` [[^111In]In-2, metal not drawn] ({DOTA}-[dE]YPGW[NMeNle]D[1Nal]-NH2) are -1.75, 0.432 and 0.466.
As to `CCCC[C@@H](C(=O)N[C@@H](CC(=O)O)C(=O)N[C@@H](Cc1cccc2ccccc12)C(N)=O)N(C)C(=O)[C@H](Cc1c[nH]c2ccccc12)NC(=O)CNC(=O)[C@@H]1CCCN1C(=O)[C@H](Cc1ccc(O)cc1)NC(=O)[C@@H](CCC(=O)O)NC(=O)CN1CCN(CC(=O)O)CCN(CC(=O)O)CCN(CC(=O)O)CC1` [[^111In]In-2] [metal not drawn] ({DOTA}-[dE]YPGW[NMeNle]D[1Nal]-NH2), in series [3] (10 min p.i.), the “intact radiopeptide in blood” value amounted to 82.3 ± 1.8%, the “intact radiopeptide in kidneys” value was found to be 30.2 ± 0.5%, the “intact radiopeptide in liver” value is 73.9 ± 1.2% and the “intact radiopeptide in urine” value turned out to be 30.3 ± 5.9%.
`CCCC[C@@H](C(=O)N[C@@H](CC(=O)O)C(=O)N[C@@H](Cc1cccc2ccccc12)C(N)=O)N(C)C(=O)[C@H](Cc1c[nH]c2ccccc12)NC(=O)[C@@H]1CCCN1C(=O)[C@H](Cc1ccc(O)cc1)NC(=O)[C@H](C)NC(=O)[C@@H](CCC(=O)O)NC(=O)CN1CCN(CC(=O)O)CCN(CC(=O)O)CCN(CC(=O)O)CC1` [[^111In]In-3, metal not drawn] ({DOTA}-[dE]AYPW[NMeNle]D[1Nal]-NH2) showed a logD in series [1] of -2.05. Besides, the fraction unbound in series [2] (setting [6]) is 0.588; in series [2] (setting [7]) it was 0.54.
With `CCCC[C@@H](C(=O)N[C@@H](CC(=O)O)C(=O)N[C@@H](Cc1cccc2ccccc12)C(N)=O)N(C)C(=O)[C@H](Cc1c[nH]c2ccccc12)NC(=O)CNC(=O)[C@@H]1CCCN1C(=O)[C@H](Cc1ccc(O)cc1)NC(=O)[C@@H](CCC(=O)O)NC(=O)CN1CCN(CC(=O)O)CCN(CC(=O)O)CCN(CC(=O)O)CC1` [[^177Lu]Lu-2] [metal not drawn] ({DOTA}-[dE]YPGW[NMeNle]D[1Nal]-NH2), in series [3] (60 min p.i., n = 1), the “intact radiopeptide in blood” value came to 79.1%, the “intact radiopeptide in kidneys” value stood at 11.0%, the “intact radiopeptide in liver” value was found to be 74.5% and the “intact radiopeptide in urine” value is 18.8%. In addition, in series [4] (150 pmol, 4 h p.i.), the “tumor uptake in A431-CCK2R xenografts” value turned out to be 15.26 ± 6.84 % IA/g. This compound also returned a tumor retention in series [4] (A431-CCK2R xenografts, 12 h p.i. relative to 4 h p.i., 20 pmol) of more than 60%. The “reduction of tumor uptake in A431-CCK2R xenografts” value in series [4] (injected peptide amount increased to 150 pmol vs 20 pmol, 4 h p.i.) is recorded as “about 50%”.
In the case of `CCCC[C@@H](C(=O)N[C@@H](CC(=O)O)C(=O)N[C@@H](Cc1cccc2ccccc12)C(N)=O)N(C)C(=O)[C@H](Cc1c[nH]c2ccccc12)NC(=O)[C@@H]1CCCN1C(=O)[C@H](Cc1ccc(O)cc1)NC(=O)[C@H](C)NC(=O)[C@@H](CCC(=O)O)NC(=O)CN1CCN(CC(=O)O)CCN(CC(=O)O)CCN(CC(=O)O)CC1` [[^177Lu]Lu-3, metal not drawn] ({DOTA}-[dE]AYPW[NMeNle]D[1Nal]-NH2), the “intact radiopeptide in blood” value in series [3] (60 min p.i., n = 1) is listed as 63.5%. For the same compound, in series [3] (60 min p.i., n = 1), the “intact radiopeptide in kidneys” value is reported as 7.2%. Also, in series [3] (60 min p.i., n = 1), the “intact radiopeptide in liver” value worked out at 35.6%. The “intact radiopeptide in urine” value in series [3] (60 min p.i., n = 1) came to 20.6%. Further, the tissue to tissue ratio at 4 h in series [5] (A431-CCK2R xenograft tumor / blood, read-out: tumor-to-blood ratio) was 709 ± 470; in series [5] (A431-CCK2R xenograft tumor / kidney, read-out: tumor-to-kidney ratio) it was 4.52 ± 1.41; in series [5] (A431-CCK2R xenograft tumor / liver, read-out: tumor-to-liver ratio), 58 ± 19.2; in series [5] (A431-CCK2R xenograft tumor / stomach, read-out: tumor-to-stomach ratio), 6.49 ± 1.32. Also, the tissue uptake at 4 h in series [5] (A431-CCK2R xenograft tumor, read-out: tumor uptake in A431-CCK2R xenografts) was 28.6 ± 7.95 %ID/g; in series [5] (A431-mock xenograft tumor, read-out: uptake in A431-mock xenografts), 0.25 ± 0.06 %ID/g; in series [5] (blood, read-out: uptake in blood) it was 0.06 ± 0.03 %ID/g; in series [5] (heart, read-out: uptake in heart) it was 0.08 ± 0.01 %ID/g; in series [5] (intestine, read-out: uptake in intestine), 0.95 ± 0.23 %ID/g; in series [5] (kidney, read-out: uptake in kidney), 6.61 ± 1.75 %ID/g. Besides, the tissue uptake at 4 h in series [5] (liver, read-out: uptake in liver) was 0.52 ± 0.12 %ID/g; in series [5] (lung, read-out: uptake in lung), 0.17 ± 0.05 %ID/g; in series [5] (muscle, read-out: uptake in muscle), 0.09 ± 0.05 %ID/g; in series [5] (pancreas, read-out: uptake in pancreas) it was 1.78 ± 0.72 %ID/g; in series [5] (spleen, read-out: uptake in spleen), 0.19 ± 0.02 %ID/g; in series [5] (stomach, read-out: uptake in stomach), 4.73 ± 2.29 %ID/g.

These data come from paper PMC7734625, “Stabilization Strategies for Linear Minigastrin Analogues: Further Improvements via the Inclusion of Proline into the Peptide Sequence” (Journal of Medicinal Chemistry, 2020).
